The test system of the experiment is T1, estradiol/estrogen methyltransferase (EMT; EmtABCD).
T1 construct: gene emtA; native, not purified; cell-free extract of estradiol-grown cells; assignment to emtABCD by proteogenomics; with Estrogen methyltransferase component EmtC; Estrogen methyltransferase component EmtD (oxidoreductase-like, putative reductive cofactor regeneration)
Description: UPLC assay of methylation by cell-free extract, Michaelis-Menten. Format: biochemical, Denitratisoma oestradiolicum. The conditions noted are these: SAM methyl donor, Ti(III)-citrate, MgCl2, HEPES/KOH pH 8.0, 30°C, anaerobic; crude soluble extract, enzyme not purified.

Turning to `C[C@]12CC[C@@H]3c4ccc(O)cc4CC[C@H]3[C@@H]1CC[C@@H]2O` [17β-estradiol], the Km worked out at 35 ± 4 µM.

`C[C@]12CC[C@@H]3c4ccc(O)cc4CC[C@H]3[C@@H]1CCC2=O` [estrone]: the Km amounted to 14 ± 3 µM.

A word on the Km: it is the concentration of substrate that gives half-maximal velocity.

Values taken from paper PMC7448270, “Channeling C1 Metabolism toward S-Adenosylmethionine-Dependent Conversion of Estrogens to Androgens in Estrogen-Degrading Bacteria” (mBio, 2020).
